Key:
Format in all cases: in vivo
[1] = tested on: Kochia (Kochia scoparia); assay: Test A postemergence; conditions: Bassia scoparia, post-emergence, 240 h, read-out: Plant response rating, Kochia; for pest or weed control at 125 g/ha: 125 g ai/ha, postemergence, visual injury after approximately 10 d, 0 to 100 scale (0 no effect, 100 complete control); for pest or weed control at 31 g/ha: Postemergence, 31 g ai/ha, visual injury after approx. 10 d, 0 to 100 scale, 0 no effect, 100 complete control
Summary of the method: (§1)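 Preemergence soil spray on seeded pots or post-emergence spray on 1–2 leaf plants, in loam–sand blend. Greenhouse ~10 d. Visual rating 0–100 against untreated plants.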

[2] = tested on: barnyardgrass (Echinochloa crus-galli); assay: Test A postemergence; conditions: Echinochloa crus-galli, post-emergence, 240 h, read-out: Plant response rating, Barnyardgrass; for pest or weed control at 125 g/ha: 125 g ai/ha, postemergence, visual injury after approximately 10 d, 0 to 100 scale (0 no effect, 100 complete control); for pest or weed control at 31 g/ha: Postemergence, 31 g ai/ha, visual injury after approx. 10 d, 0 to 100 scale, 0 no effect, 100 complete control
Summary of the method: as §1

[3] = tested on: Galium (catchweed bedstraw, Galium aparine); assay: Test A postemergence; conditions: Galium, post-emergence, 240 h, read-out: Plant response rating, Galium; for pest or weed control at 125 g/ha: 125 g ai/ha, postemergence, visual injury after approximately 10 d, 0 to 100 scale (0 no effect, 100 complete control); for pest or weed control at 31 g/ha: Postemergence, 31 g ai/ha, visual injury after approx. 10 d, 0 to 100 scale, 0 no effect, 100 complete control
Summary of the method: as §1

[4] = tested on: pigweed (Amaranthus retroflexus); assay: Test A postemergence; conditions: Amaranthus retroflexus, post-emergence, 240 h, read-out: Plant response rating, Pigweed; for pest or weed control at 125 g/ha: 125 g ai/ha, postemergence, visual injury after approximately 10 d, 0 to 100 scale (0 no effect, 100 complete control); for pest or weed control at 31 g/ha: Postemergence, 31 g ai/ha, visual injury after approx. 10 d, 0 to 100 scale, 0 no effect, 100 complete control
Summary of the method: as §1

[5] = tested on: wheat (Triticum aestivum); assay: Test A postemergence; conditions: Triticum aestivum, post-emergence, 240 h, Postemergence, 31 g ai/ha; visual injury after approx. 10 d; 0 to 100 scale, 0 no effect, 100 complete control; read-out: Plant response rating, Wheat
Summary of the method: as §1

[6] = tested on: ragweed (common ragweed, Ambrosia elatior); assay: Test A postemergence; conditions: Ambrosia artemisiifolia, post-emergence, 240 h, read-out: Plant response rating, Ragweed; for pest or weed control at 125 g/ha: 125 g ai/ha, postemergence, visual injury after approximately 10 d, 0 to 100 scale (0 no effect, 100 complete control); for pest or weed control at 31 g/ha: Postemergence, 31 g ai/ha, visual injury after approx. 10 d, 0 to 100 scale, 0 no effect, 100 complete control
Summary of the method: as §1

[7] = tested on: blackgrass (Alopecurus myosuroides); assay: Test A postemergence; conditions: Alopecurus myosuroides, post-emergence, 240 h, read-out: Plant response rating, Blackgrass; for pest or weed control at 125 g/ha: 125 g ai/ha, postemergence, visual injury after approximately 10 d, 0 to 100 scale (0 no effect, 100 complete control); for pest or weed control at 31 g/ha: Postemergence, 31 g ai/ha, visual injury after approx. 10 d, 0 to 100 scale, 0 no effect, 100 complete control
Summary of the method: as §1

[8] = tested on: ryegrass, Italian (Italian ryegrass, Lolium multiflorum); assay: Test A postemergence; conditions: Lolium multiflorum, post-emergence, 240 h, read-out: Plant response rating, Ryegrass, Italian; for pest or weed control at 125 g/ha: 125 g ai/ha, postemergence, visual injury after approximately 10 d, 0 to 100 scale (0 no effect, 100 complete control); for pest or weed control at 31 g/ha: Postemergence, 31 g ai/ha, visual injury after approx. 10 d, 0 to 100 scale, 0 no effect, 100 complete control
Summary of the method: as §1

[9] = tested on: giant foxtail (Setaria faberii); assay: Test A postemergence; conditions: Setaria faberi, post-emergence, 240 h, read-out: Plant response rating, Foxtail, Giant; for pest or weed control at 125 g/ha: 125 g ai/ha, postemergence, visual injury after approximately 10 d, 0 to 100 scale (0 no effect, 100 complete control); for pest or weed control at 31 g/ha: Postemergence, 31 g ai/ha, visual injury after approx. 10 d, 0 to 100 scale, 0 no effect, 100 complete control
Summary of the method: as §1

[10] = tested on: corn (Zea mays); assay: Test A postemergence; conditions: Zea mays, post-emergence, 240 h; for Corn plant response rating (crop injury, 0 = no effect, 100 = complete kill) at 125 g/ha: 125 g ai/ha, postemergence, visual injury after approximately 10 d, 0 to 100 scale (0 no effect, 100 complete control); for Corn plant response rating (crop injury, 0 = no effect, 100 = complete kill) at 31 g/ha: Postemergence, 31 g ai/ha, visual injury after approx. 10 d, 0 to 100 scale, 100 complete control
Summary of the method: as §1

[11] = tested on: Kochia (Kochia scoparia); assay: Test A preemergence; conditions: Bassia scoparia, pre-emergence, 240 h, read-out: Plant response rating, Kochia; for pest or weed control at 125 g/ha: 125 g ai/ha, preemergence, visual rating after approx. 10 d, 0 to 100 scale where 0 is no effect and 100 is complete control; for pest or weed control at 31 g/ha: Preemergence, 31 g ai/ha, 0 to 100 scale (0 no effect, 100 complete control)
Summary of the method: as §1

[12] = tested on: barnyardgrass (Echinochloa crus-galli); assay: Test A preemergence; conditions: Echinochloa crus-galli, pre-emergence, 240 h, read-out: Plant response rating, Barnyardgrass; for pest or weed control at 125 g/ha: 125 g ai/ha, preemergence, visual rating after approx. 10 d, 0 to 100 scale where 0 is no effect and 100 is complete control; for pest or weed control at 31 g/ha: Preemergence, 31 g ai/ha, 0 to 100 scale (0 no effect, 100 complete control)
Summary of the method: as §1

[13] = tested on: ragweed (common ragweed, Ambrosia elatior); assay: Test A preemergence; conditions: Ambrosia artemisiifolia, pre-emergence, 240 h, read-out: Plant response rating, Ragweed; for pest or weed control at 125 g/ha: 125 g ai/ha, preemergence, visual rating after approx. 10 d, 0 to 100 scale where 0 is no effect and 100 is complete control; for pest or weed control at 31 g/ha: Preemergence, 31 g ai/ha, 0 to 100 scale (0 no effect, 100 complete control)
Summary of the method: as §1

[14] = tested on: ryegrass, Italian (Italian ryegrass, Lolium multiflorum); assay: Test A preemergence; conditions: Lolium multiflorum, pre-emergence, 240 h, read-out: Plant response rating, Ryegrass, Italian; for pest or weed control at 125 g/ha: 125 g ai/ha, preemergence, visual rating after approx. 10 d, 0 to 100 scale where 0 is no effect and 100 is complete control; for pest or weed control at 31 g/ha: Preemergence, 31 g ai/ha, 0 to 100 scale (0 no effect, 100 complete control)
Summary of the method: as §1

[15] = tested on: giant foxtail (Setaria faberii); assay: Test A preemergence; conditions: Setaria faberi, pre-emergence, 240 h, read-out: Plant response rating, Foxtail, Giant; for pest or weed control at 125 g/ha: 125 g ai/ha, preemergence, visual rating after approx. 10 d, 0 to 100 scale where 0 is no effect and 100 is complete control; for pest or weed control at 31 g/ha: Preemergence, 31 g ai/ha, 0 to 100 scale (0 no effect, 100 complete control)
Summary of the method: as §1

## CSc1ccccc1NC(=O)[C@H]1C(=O)N(C)C[C@@H]1c1cc(C)c(C)c(C)c1 [Compound 798]
[1]
  pest or weed control at 125 g/ha: 0%
  pest or weed control at 31 g/ha: 0%
[2]
  pest or weed control at 125 g/ha: 80%
  pest or weed control at 31 g/ha: 40%
[3]
  pest or weed control at 125 g/ha: 20%
  pest or weed control at 31 g/ha: 0%
[4]
  pest or weed control at 125 g/ha: 20%
  pest or weed control at 31 g/ha: 0%
[5]
  plant injury at 31 g/ha: 0%
[6]
  pest or weed control at 125 g/ha: 0%
  pest or weed control at 31 g/ha: 0%
[7]
  pest or weed control at 125 g/ha: 40%
  pest or weed control at 31 g/ha: 0%
[8]
  pest or weed control at 125 g/ha: 40%
  pest or weed control at 31 g/ha: 0%
[9]
  pest or weed control at 125 g/ha: 70%
  pest or weed control at 31 g/ha: 20%
[10]
  Corn plant response rating (crop injury, 0 = no effect, 100 = complete kill) at 125 g/ha: 40%
  Corn plant response rating (crop injury, 0 = no effect, 100 = complete kill) at 31 g/ha: 0%
[11]
  pest or weed control at 125 g/ha: 20%
  pest or weed control at 31 g/ha: 0%
[12]
  pest or weed control at 125 g/ha: 80%
  pest or weed control at 31 g/ha: 20%
[13]
  pest or weed control at 125 g/ha: 0%
  pest or weed control at 31 g/ha: 0%
[14]
  pest or weed control at 125 g/ha: 0%
  pest or weed control at 31 g/ha: 0%
[15]
  pest or weed control at 125 g/ha: 90%
  pest or weed control at 31 g/ha: 70%

## CSc1ccccc1NC(=O)[C@H]1C(=O)N(C)C[C@@H]1c1ccc(C(F)F)cc1 [Compound 799]
[1]
  pest or weed control at 125 g/ha: 30%
  pest or weed control at 31 g/ha: 0%
[2]
  pest or weed control at 125 g/ha: 70%
  pest or weed control at 31 g/ha: 40%
[3]
  pest or weed control at 125 g/ha: 50%
  pest or weed control at 31 g/ha: 0%
[4]
  pest or weed control at 125 g/ha: 20%
  pest or weed control at 31 g/ha: 0%
[5]
  plant injury at 31 g/ha: 0%
[6]
  pest or weed control at 125 g/ha: 0%
  pest or weed control at 31 g/ha: 0%
[7]
  pest or weed control at 125 g/ha: 30%
  pest or weed control at 31 g/ha: 0%
[8]
  pest or weed control at 125 g/ha: 20%
  pest or weed control at 31 g/ha: 0%
[9]
  pest or weed control at 125 g/ha: 80%
  pest or weed control at 31 g/ha: 40%
[10]
  Corn plant response rating (crop injury, 0 = no effect, 100 = complete kill) at 125 g/ha: 20%
  Corn plant response rating (crop injury, 0 = no effect, 100 = complete kill) at 31 g/ha: 0%
[11]
  pest or weed control at 125 g/ha: 40%
  pest or weed control at 31 g/ha: 0%
[12]
  pest or weed control at 125 g/ha: 40%
  pest or weed control at 31 g/ha: 0%
[13]
  pest or weed control at 125 g/ha: 0%
  pest or weed control at 31 g/ha: 0%
[14]
  pest or weed control at 125 g/ha: 0%
  pest or weed control at 31 g/ha: 0%
[15]
  pest or weed control at 125 g/ha: 90%
  pest or weed control at 31 g/ha: 70%

## Cc1cc(F)cc([C@H]2CN(C)C(=O)[C@@H]2C(=O)Nc2ccc(F)c(F)c2F)c1 [Compound 801]
[1]
  pest or weed control at 125 g/ha: 40%
  pest or weed control at 31 g/ha: 20%
[2]
  pest or weed control at 125 g/ha: 90%
  pest or weed control at 31 g/ha: 80%
[3]
  pest or weed control at 125 g/ha: 60%
  pest or weed control at 31 g/ha: 30%
[4]
  pest or weed control at 125 g/ha: 30%
  pest or weed control at 31 g/ha: 30%
[5]
  plant injury at 31 g/ha: 0%
[6]
  pest or weed control at 125 g/ha: 50%
  pest or weed control at 31 g/ha: 0%
[7]
  pest or weed control at 125 g/ha: 60%
  pest or weed control at 31 g/ha: 20%
[8]
  pest or weed control at 125 g/ha: 60%
  pest or weed control at 31 g/ha: 0%
[9]
  pest or weed control at 125 g/ha: 90%
  pest or weed control at 31 g/ha: 70%
[10]
  Corn plant response rating (crop injury, 0 = no effect, 100 = complete kill) at 125 g/ha: 60%
  Corn plant response rating (crop injury, 0 = no effect, 100 = complete kill) at 31 g/ha: 20%
[11]
  pest or weed control at 125 g/ha: 70%
  pest or weed control at 31 g/ha: 40%
[12]
  pest or weed control at 125 g/ha: 90%
  pest or weed control at 31 g/ha: 80%
[13]
  pest or weed control at 125 g/ha: 60%
  pest or weed control at 31 g/ha: 20%
[14]
  pest or weed control at 125 g/ha: 20%
  pest or weed control at 31 g/ha: 0%
[15]
  pest or weed control at 125 g/ha: 90%
  pest or weed control at 31 g/ha: 80%
